Reference: ChEMBL document CHEMBL1133483, “Enhanced pneumocystis carinii activity of new primaquine analogues” (2000)

Legend:
Format in all cases: functional
Pneumocystis carinii [1] = assay: Efficacy of compound was evaluated in rat infected with Pneumocystis carinii at a dose of 2 mg/Kg administered subcutaneously
Pneumocystis carinii [2] = assay: Efficacy of compound was evaluated in rat infected with Pneumocystis carinii at a dose of 2 mg/Kg administered intraperitoneally
Pneumocystis carinii [3] = assay: Efficacy of compound was evaluated in rat infected with Pneumocystis carinii at a dose of 2 mg/Kg administered orally

| SMILES | Infection score (Pneumocystis carinii [1]) | Infection score (Pneumocystis carinii [2]) | Infection score (Pneumocystis carinii [3]) |
| --- | --- | --- | --- |
| COc1cc(NC(C)CCCN)c2ncccc2c1 (stereo unspecified) [PRIMAQUINE] | 4.3 | – | – |
| CCCCCCCOc1ccc(Oc2c(OC)cc(NC(C)CCCN)c3nccc(C)c23)cc1 (stereo unspecified) | – | 0.71 | 1.25 |
| CCOc1ccc(Oc2c(OC)cc(NC(C)CCCN)c3nccc(C)c23)cc1 (stereo unspecified) | – | 0 | – |
| CCCCCCCCCCCCCCCCOc1ccc(Oc2c(OC)cc(NC(C)CCCN)c3nccc(C)c23)cc1 (stereo unspecified) | – | 4.5 | – |
| COc1cc(Cc2cnc(N)nc2N)cc(OC)c1OC.Cc1cc(NS(=O)(=O)c2ccc(N)cc2)no1 [CO-TRIMOXAZOLE] | – | 1.31 | – |
